Measured values: patent US12655189B2, “DOTA binding chimeric antigen receptor for cellular therapy” (THE TRUSTEES OF THE UNIVERSITY OF PENNSYLVANIA, priority 2019, dated 2026)

Legend:
antigen positive cells = experiment: Target-cell lysis with DOTA-conjugated targeting ligands: linker/metal tuning and blocking (FIGS. 3E, 6B, 9); type: cell-based; settings: 6 nM DOTA-NHS blocking
Procedure: To investigate the ability of DOTA-linked antibodies to trigger effector function in CAR T cells, CAR T cells were incubated with varying amounts of the Her2-specific Herceptin-conjugated DOTA antibody for 16 hours (FIG. 3D). Following this incubation, the supernatant was collected and IFNγ production was measured.
Herceptin antibodies were conjugated to DOTA, various metal ions were chelated, and the ability of DOTA CAR T cells to kill their targets was evaluated.

hC8.2.5 DOTA CAR T cells = experiment: IFNγ secretion (ELISA) in response to immobilized DOTA or Y-DOTA; type: cell-based, human; settings: immobilized ligand
Procedure: FIGS. 3A-3H illustrate Anti-DOTA Universal Immune Receptor binding and redirected killing. […] DOTA-NHS or Y-DOTA-Sarcosine-Biotin were incubated at various concentrations in a 96-well plate and allowed to passively adhere overnight at 4° C. Plates were washed 2× with PBS and 50,000 immune receptor expressing T cells were added to each well. Plates were incubated at 37° C. and 5% CO2 for 16 hours. Supernatants were harvested and analyzed for IFNγ secretion using a standard IFNγ ELISA kit. […] The average number of DOTA's per antibody was determined using the difference in mass between labeled and unlabeled antibody; in this example there are ˜9.3 DOTAs per antibody.

CD20+ cells = experiment: Lysis of CD20+ cells by DOTA CAR; type: cell-based; settings: SKOV3 cells as antigen negative control
[1] = tested on: Ramos (CD20+/EGFR−) cells; experiment: Luciferase lysis assay, Ramos; type: cell-based; settings: 16 hours, 2.5:1 E:T, average of 1 DOTA per antibody
Procedure: Cetuximab and Rituximab were conjugated to Bn-DOTA to create targeting ligands with an average of 1 DOTA molecule per antibody, confirmed by MALDI TOF. MDA468 (CD20-/EGFR+) cells and Ramos (CD20+/EGFR−) cells expressing fLuc were incubated for 16 hours with DOTA CAR T cells at a 2.5:1 E:T ratio and targeting ligands at a range of concentrations. Each condition was run in triplicate. Luminescence was measured after co-culture and used to calculate lysis.

[2] = tested on: SKOV3 cells transduced with the DOTA CAR; experiment: Cell uptake of radiolabeled probes, DOTA CAR transduced cells; type: cell-based
Procedure: FIG. 19 is a histogram illustrating [[…]]DOTA-Bn-NH2 and [^90Y]AABD uptake in SKOV3 cells transduced with the DOTA CAR.
FIG. 20 is a graph illustrating [[…]]Rituximab-Bn-DOTA-Y uptake in SKOV3 cells transduced with the DOTA CAR. The cells bind to [^125I]Rituximab-Bn-DOTA-Y rapidly, with maximum uptake at 60 min.
(§1) [^90Y]DOTA-Bn-NH2 and [^90Y]AABD (FIG. 14) were synthesized by incubating 0.6 mCi of Y-90 with DOTA-Bn-NH2 or AABD at 80° C. for 30 min. The radiochemical purity of [^90Y]DOTA-Bn-NH2 and [^90Y]AABD was >95% as analyzed by ITLC (instant thin-layer chromatography). Cell uptake studies were performed with SKOV3 cells transduced with the DOTA CAR, with untransduced SKOV3 cells as a control; excess Y-DOTA-Bn-NH2 (250 nM) was used as a blocking agent.
(§2) Rituxumab-Bn-DOTA-Y was radiolabeled with 1-125 using Pierce Pre-Coated Iodination Tubes. The radiochemical purity of [^125I]Rituximab-Bn-DOTA-Y was >99% based on ITLC (instant thin-layer chromatography). Cell uptake studies with [^125I]Rituximab-Bn-DOTA-Y were performed with SKOV3 cells that were transduced with the DOTA CAR, with untransduced SKOV3 cells as a control. […] This experiment confirmed that Y-DOTA labeled antibodies are capable of binding to cells that express the DOTA CAR, with minimal nonspecific binding.

untransduced SKOV3 cells = experiment: Cell uptake of radiolabeled probes, untransduced control cells; type: cell-based
Procedure: as §1, §2

Molecule: O=C(O)CN1CCN(CC(=O)O)CCN(CC(=O)ON2C(=O)CCC2=O)CCN(CC(=O)O)CC1 [DOTA-NHS]
- effect of free monomeric DOTA on lytic function of Herceptin-NHS-DOTA-Y-CAR T cells (antigen positive cells): blockade of lytic function
- concentration at which the IFNγ effect was saturating (hC8.2.5 DOTA CAR T cells): 100 µM
- IFNγ production by hC8.2.5 DOTA CAR T cells (hC8.2.5 DOTA CAR T cells; 16 hours): low levels of IFNγ

Molecule: Rituximab-Bn-DOTA-Y: Rituximab-Bn-DOTA with chelated yttrium
- lysis of CD20+ cells (CD20+ cells): capable of lysing CD20+ cells

Molecule: Rituximab-Bn-DOTA: Rituximab conjugated to Bn-DOTA
- lysis of Ramos cells [1]: able to specifically lyse their respective target cell lines
- lysis of CD20+ cells (CD20+ cells): specifically lysed

Molecule: [^125I]Rituximab-Bn-DOTA-Y: Rituximab-Bn-DOTA-Y radiolabeled with I-125
- time of maximum uptake [2]: 60 min
- cell uptake ([2]; at 60 min): 65 % input/10^6 cells
- cell uptake in untransduced cells (untransduced SKOV3 cells): minimal to no uptake
